≈ marks a conversion by molar mass, not a printed value.
Assay: Solubility in PBS
Format: physicochemical
Details: not given
Description: After ultracentrifugation of the PBS solution, the supernatant was analyzed by HPLC and compared to an HPLC injection 50 μM peptide DMSO solution. Solubility was determined by: [(Area of PBS peak)/(Area of DMSO peak)]*50 uM.
With `CC(=O)N1CCC[C@]12CC=CCCCC1(CCCC=CCCCOC(=O)N3CC[C@@](C(=O)N[C@@H](Cc4ccsc4)C(=O)N[C@@H](Cc4csc5ccccc45)C(=O)N[C@@H](CCC(N)=O)C(=O)NC4CC4)(C3)NC(=O)[C@H](CC(N)=O)NC(=O)[C@H](Cc3ccccc3)NC(=O)[C@H](C)NC(=O)[C@H](C)NC(=O)[C@H](CC(=O)O)NC(=O)[C@H](CC(=O)O)NC1=O)NC(=O)[C@H](CC(C)(C)C)NC(=O)[C@H](CC(=O)O)NC2=O` (stereo partly drawn) [I-1375, PL3-Asp-Npg-B5-Asp-Asp-Ala-Ala-Phe-Asn-PyrS2-3Thi-BztA-Gln-NHCyPr] the “Solubility” value was 50 µM (≈ 97.9 µg/mL).
With `CC(=O)N1CCC[C@]12CC=CCCCC1(CCCC=CCCCOC(=O)N3CC[C@@](C(=O)N[C@@H](CC4CCCCC4)C(=O)N[C@@H](Cc4csc5ccccc45)C(=O)N[C@@H](CCC(N)=O)C(N)=O)(C3)NC(=O)[C@H](Cc3ccccc3)NC(=O)[C@H](Cc3ccccc3)NC(=O)[C@H](C)NC(=O)[C@H](C)NC(=O)[C@H](CC(=O)O)NC(=O)[C@H](CC(=O)O)NC1=O)NC(=O)[C@H](CC(C)(C)C)NC(=O)[C@H](CC(=O)O)NC2=O` (stereo partly drawn) [I-1331, PL3-Asp-Npg-B5-Asp-Asp-Ala-Ala-Phe-Phe-PyrS2-Cha-BztA-Gln-NH2] the “Solubility” value was 10 µM (≈ 19.5 µg/mL).
With `CC(=O)N1CCC[C@]12CC=CCCCC1(CCCC=CCCCOC(=O)N3CC[C@@](C(=O)N[C@@H](Cc4ccccc4)C(=O)N[C@@H](Cc4csc5ccccc45)C(=O)N[C@@H](CCC(N)=O)C(N)=O)(C3)NC(=O)[C@H](CC(C)C)NC(=O)[C@H](Cc3ccccc3)NC(=O)[C@H](C)NC(=O)[C@H](C)NC(=O)[C@H]([C@@H](C)O)NC(=O)[C@H](CC(=O)O)NC1=O)NC(=O)[C@H](CC(C)(C)C)NC(=O)[C@H](CC(N)=O)NC2=O` (single isomer, unassigned) [I-1284, Ac-PL3-Asn-Npg-B5-Asp-Thr-Ala-Ala-Phe-Leu-PyrS2-Phe-BztA-Gln-NH2] the “Solubility” value was 10 µM (≈ 19 µg/mL).
In the case of `CC(=O)N1CCC[C@]12CC=CCCCC1(CCCC=CCCCOC(=O)N3CC[C@@](C(=O)N[C@@H](Cc4ccccc4C(F)(F)F)C(=O)N[C@@H](Cc4csc5ccccc45)C(=O)N[C@@H](CO)C(N)=O)(C3)NC(=O)[C@H](CC(C)C)NC(=O)[C@H](Cc3ccccc3)NC(=O)[C@H](C)NC(=O)[C@H](C)NC(=O)[C@H](Cc3cccc(C(=O)O)c3)NC(=O)[C@H](CC(=O)O)NC1=O)NC(=O)[C@H](CC(C)(C)C)NC(=O)[C@H](CC(=O)O)NC2=O` (stereo partly drawn) [I-1336, PL3-Asp-Npg-B5-Asp-3COOHF-Ala-Ala-Phe-Leu-PyrS2-2F3MeF-BztA-Ser-NH2], the “Solubility” value is reported as 10 µM (≈ 20.1 µg/mL).
With `CC(=O)N1CCC[C@]12CC=CCCCC1(CCCC=CCCCOC(=O)N3CC[C@@](C(=O)N[C@@H](Cc4ccccc4)C(=O)N[C@@H](Cc4csc5ccccc45)C(=O)N[C@H](C(N)=O)[C@@H](C)O)(C3)NC(=O)[C@H](CC(C)C)NC(=O)[C@H](Cc3ccccc3)NC(=O)[C@H](C)NC(=O)[C@H](C)NC(=O)[C@H]([C@@H](C)O)NC(=O)[C@H](CC(N)=O)NC1=O)NC(=O)[C@H](CC(C)(C)C)NC(=O)[C@H](CC(=O)O)NC2=O` (single isomer, unassigned) [I-1299, Ac-PL3-Asp-Npg-B5-Asn-Thr-Ala-Ala-Phe-Leu-PyrS2-Phe-BztA-Thr-NH2] the “Solubility” value was 10 µM (≈ 18.7 µg/mL).
With `CC(=O)N1CCC[C@]12CC=CCCCC1(CCCC=CCCCOC(=O)N3CC[C@@](C(=O)N[C@@H](Cc4ccccc4C(F)(F)F)C(=O)N[C@@H](Cc4csc5ccccc45)C(=O)N[C@H](CO)[C@@H](C)O)(C3)NC(=O)[C@H](CC(C)C)NC(=O)[C@H](Cc3ccccc3)NC(=O)[C@H](C)NC(=O)[C@H](C)NC(=O)[C@H](Cc3cccc(C(=O)O)c3)NC(=O)[C@H](CC(=O)O)NC1=O)NC(=O)[C@H](CC(C)(C)C)NC(=O)[C@H](CC(=O)O)NC2=O` (stereo partly drawn) [I-1337, PL3-Asp-Npg-B5-Asp-3COOHF-Ala-Ala-Phe-Leu-PyrS2-2F3MeF-BztA-Thro1] the “Solubility” value was 10 µM (≈ 20.2 µg/mL).
In the case of `CC(=O)N1CCC[C@]12CC=CCCCC1(CCCC=CCCCOC(=O)N3CC[C@@](C(=O)N[C@@H](Cc4ccccc4)C(=O)N[C@@H](Cc4ccc5ccccc5c4)C(=O)N[C@@H](CCC(N)=O)C(N)=O)(C3)NC(=O)[C@H](CC(C)C)NC(=O)[C@H](Cc3ccccc3)NC(=O)[C@H](C)NC(=O)[C@H](C)NC(=O)[C@H]([C@@H](C)O)NC(=O)[C@H](CC(=O)O)NC1=O)NC(=O)[C@H](CC(C)(C)C)NC(=O)[C@H](CC(N)=O)NC2=O` (single isomer, unassigned) [I-1292, Ac-PL3-Asn-Npg-B5-Asp-Thr-Ala-Ala-Phe-Leu-PyrS2-Phe-2NapA-Gln-NH2], the “Solubility” value is reported as 10 µM (≈ 18.9 µg/mL).
With `CC(=O)N1CCC[C@]12CC=CCCCC1(CCCC=CCCCOC(=O)N3CC[C@@](C(=O)N[C@@H](Cc4ccccc4Cl)C(=O)N[C@@H](Cc4csc5ccccc45)C(=O)N[C@@H](CCC(N)=O)C(N)=O)(C3)NC(=O)[C@H](Cc3ccccc3)NC(=O)[C@H](Cc3ccccc3)NC(=O)[C@H](C)NC(=O)[C@H](C)NC(=O)[C@H](Cc3cccc(C(=O)O)c3)NC(=O)[C@H](CC(=O)O)NC1=O)NC(=O)[C@H](CC(C)(C)C)NC(=O)[C@H](CC(=O)O)NC2=O` (stereo partly drawn) [I-1338, PL3-Asp-Npg-B5-Asp-3COOHF-Ala-Ala-Phe-Phe-PyrS2-2C1F-BztA-Gln-NH2] the “Solubility” value was 10 µM (≈ 20.6 µg/mL).
In the case of `CC(=O)N1CCC[C@]12CC=CCCCC1(CCCC=CCCCOC(=O)N3CC[C@@](C(=O)N[C@@H](Cc4ccccc4)C(=O)N[C@@H](Cc4csc5ccccc45)C(=O)N[C@@H](CCC(N)=O)C(N)=O)(C3)NC(=O)[C@H](CC(C)C)NC(=O)[C@H](Cc3ccccc3)NC(=O)[C@H](C)NC(=O)[C@H](C)NC(=O)[C@H]([C@@H](C)O)NC(=O)[C@H](CC(=O)O)NC1=O)NC(=O)[C@H](C)NC(=O)[C@H](CC(N)=O)NC2=O` (single isomer, unassigned) [I-1287, Ac-PL3-Asn-Ala-B5-Asp-Thr-Ala-Ala-Phe-Leu-PyrS2-Phe-BztA-Gln-NH2], the “Solubility” value is reported as 10 µM (≈ 18.4 µg/mL).
With `CC(=O)N1CCC[C@]12CC=CCCCC1(CCCC=CCCCOC(=O)N3CC[C@@](C(=O)N[C@@H](Cc4ccccc4)C(=O)N[C@@H](Cc4ccc5ccccc5c4)C(=O)N[C@@H](CCC(N)=O)C(N)=O)(C3)NC(=O)[C@H](CC(C)C)NC(=O)[C@H](Cc3ccccc3)NC(=O)[C@H](C)NC(=O)[C@H](CCCCNC(C)C)NC(=O)[C@H]([C@@H](C)O)NC(=O)[C@H](CC(N)=O)NC1=O)NC(=O)[C@H](C)NC(=O)[C@H](CC(=O)O)NC2=O` (stereo partly drawn) [I-1381, Ac-PL3-Asp-Ala-B5-Asn-Thr-iPrLys-Ala-Phe-Leu-PyrS2-Phe-2NapA-Gln-NH2] the “Solubility” value was 10 µM (≈ 19.3 µg/mL).
For `CC(=O)N1CCC[C@]12CC=CCCCC1(CCCC=CCCCOC(=O)N3CC[C@@](C(=O)N[C@@H](Cc4ccccc4Cl)C(=O)N[C@@H](Cc4csc5ccccc45)C(=O)N[C@H](CO)[C@@H](C)O)(C3)NC(=O)[C@H](CC(C)C)NC(=O)[C@H](Cc3ccccc3)NC(=O)[C@H](C)NC(=O)[C@H](C)NC(=O)[C@H](Cc3cccc(C(=O)O)c3)NC(=O)[C@H](CC(=O)O)NC1=O)NC(=O)[C@H](CC(C)(C)C)NC(=O)[C@H](CC(=O)O)NC2=O` (stereo partly drawn) [I-1334, PL3-Asp-Npg-B5-Asp-3COOHF-Ala-Ala-Phe-Leu-PyrS2-2C1F-BztA-Thro1], the “Solubility” value was 10 µM (≈ 19.8 µg/mL).

Same assay, conditions: Solubility (uM)
Molecule `CC(=O)N1CCC[C@]12CC=CCCCC1(CCCC=CCCCOC(=O)N3CC[C@@](C(=O)N[C@@H](Cc4cccs4)C(=O)N[C@@H](Cc4csc5ccccc45)C(=O)N[C@@H](CCC(N)=O)C(N)=O)(C3)NC(=O)[C@H](Cc3ccccc3)NC(=O)[C@H](Cc3ccccc3)NC(=O)[C@H](C)NC(=O)[C@H](C)NC(=O)[C@H](CC(=O)O)NC(=O)[C@H](CC(=O)O)NC1=O)NC(=O)[C@H](CC(C)(C)C)NC(=O)[C@H](CC(=O)O)NC2=O` (stereo partly drawn) [I-1345, PL3-Asp-Npg-B5-Asp-Asp-Ala-Ala-Phe-Phe-PyrS2-2Thi-BztA-Gln-NH2] has a solubility at 15 min of 37 µM (≈ 72.2 µg/mL).
In the case of `CC(=O)N1CCC[C@]12CC=CCCCC1(CCCC=CCCCOC(=O)N3CC[C@@](C(=O)N[C@@H](Cc4ccsc4)C(=O)N[C@@H](Cc4csc5ccccc45)C(=O)N[C@@H](CCC(N)=O)C(N)=O)(C3)NC(=O)[C@H](CC(C)C)NC(=O)[C@H](Cc3ccccc3)NC(=O)[C@H](C)NC(=O)[C@H](C)NC(=O)[C@H](CC(=O)O)NC(=O)[C@H](CCN)NC1=O)NC(=O)[C@H](CC(C)(C)C)NC(=O)[C@H](CC(=O)O)NC2=O` (stereo partly drawn) [I-1217, Ac-PL3-Asp-Npg-B5-Dab-Asp-Ala-Ala-Phe-Leu-PyrS2-3Thi-BztA-Gln-NH2], the solubility at 15 min is reported as 15 µM (≈ 28.5 µg/mL).
Molecule `COc1ccccc1C[C@H](NC(=O)[C@]12CCN(C1)C(=O)OCCCC=CCCCC1(CCCC=CC[C@]3(CCCN3C(C)=O)C(=O)N[C@@H](CC(=O)O)C(=O)N[C@@H](CC(C)(C)C)C(=O)N1)C(=O)N[C@@H](CC(=O)O)C(=O)N[C@@H](CC(=O)O)C(=O)N[C@@H](C)C(=O)N[C@@H](C)C(=O)N[C@@H](Cc1ccccc1)C(=O)N[C@@H](CC(C)C)C(=O)N2)C(=O)N[C@@H](Cc1csc2ccccc12)C(=O)N[C@@H](CCC(N)=O)C(N)=O` (stereo partly drawn) [I-1327, PL3-Asp-Npg-B5-Asp-Asp-Ala-Ala-Phe-Leu-PyrS2-2OMeF-BztA-Gln-NH2] has a solubility at 15 min of 39 µM (≈ 75.7 µg/mL).
With `CC(=O)N1CCC[C@]12CC=CCCCC1(CCCC=CCCCOC(=O)N3CC[C@@](C(=O)N[C@@H](Cc4ccccc4C(F)(F)F)C(=O)N[C@@H](Cc4csc5ccccc45)C(=O)N[C@@H](CCC(N)=O)C(N)=O)(C3)NC(=O)[C@H](CC(C)C)NC(=O)[C@H](Cc3ccccc3)NC(=O)[C@H](C)NC(=O)[C@H](C)NC(=O)[C@H](Cc3cccc(C(=O)O)c3)NC(=O)[C@H](CC(=O)O)NC1=O)NC(=O)[C@H](CC(C)(C)C)NC(=O)[C@H](CC(=O)O)NC2=O` (stereo partly drawn) [I-1335, PL3-Asp-Npg-B5-Asp-3COOHF-Ala-Ala-Phe-Leu-PyrS2-2F3MeF-BztA-Gln-NH2] the solubility at 15 min was 11 µM (≈ 22.6 µg/mL).
With `CC(=O)N1CCC[C@]12CC=CCCCC1(CCCC=CCCCOC(=O)N3CC[C@@](C(=O)N[C@@H](Cc4ccccc4Cl)C(=O)N[C@@H](Cc4csc5ccccc45)C(=O)N[C@@H](CCC(N)=O)C(N)=O)(C3)NC(=O)[C@H](CC(C)C)NC(=O)[C@H](Cc3ccccc3)NC(=O)[C@H](C)NC(=O)[C@H](C)NC(=O)[C@H](Cc3cccc(C(=O)O)c3)NC(=O)[C@H](CC(=O)O)NC1=O)NC(=O)[C@H](CC(C)(C)C)NC(=O)[C@H](CC(=O)O)NC2=O` (stereo partly drawn) [I-1332, PL3-Asp-Npg-B5-Asp-3COOHF-Ala-Ala-Phe-Leu-PyrS2-2C1F-BztA-Gln-NH2] the solubility at 15 min was 13 µM (≈ 26.3 µg/mL).
